This note sets out measurements from PubChem BioAssay (NCI).

Test in all cases: DTP human tumour cell line panel, 48 h
For test [1], the system named is HCT-116 colon.
Test [2] concerns HCC-2998 colon.
For test [3], the system named is T-47D breast.
For test [4], the system named is NCI-H460 lung.
Test [5] concerns MALME-3M melanoma.
The subject of test [6] is OVCAR-8 ovarian.
Test [7] has as its system A498 renal.
The test system of test [8] is RPMI-8226 leukemia.
Test [9] concerns HT29 colon.
Test [10] concerns RXF 393 renal.

Each structure is given as a SMILES string.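 Compound exposure: 48 hours, 5 concentrations, 96-well plates. The concentration for 50% growth inhibition is given as GI50. TGI is the concentration that stops growth completely.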

Turning to `CN1CCN(c2ccc(Nc3ncc4cc(C#N)c(=O)n(C5CCCC5)c4n3)cc2)CC1`, the GI50 in [1] was 0.587 µM; in test [2] it was 2.8 µM; in [3] it was 2.32 µM; in test [4], 0.64 µM; in [5] it was 1.9 µM; in test [6], 3.18 µM. For the same compound, the GI50 in test [7] was 0.199 µM; in test [8], 0.87 µM; in [9], 0.6 µM; in test [10] it was 0.477 µM. For the same compound, the TGI is above 100 µM in [1]; above 100 µM in [2]; above 100 µM in test [3]; above 49.3 µM in [4]; above 100 µM in [5]; above 47.9 µM in test [6]. Besides, the TGI in [7] was 2.24 µM; in test [8] it was 5.33 µM; in test [9], above 100 µM; in test [10], 2.23 µM.

For the compound `O=C(NO)c1ccc(CN(c2cnccn2)c2cnccn2)cc1`, the GI50 in [1] is 6.04 µM; in [2], 13.2 µM; in test [3] it was 9.55 µM; in [4], 14.8 µM; in test [5], 7.9 µM; in [6], 3.75 µM. In addition, the GI50 in test [7] is 10.3 µM; in test [8], 8.68 µM; in test [9], 15.4 µM; in [10] it was 11.5 µM. The TGI in test [1] was found to be 28.9 µM; in [2], 26.8 µM; in test [3], 38.1 µM; in [4], 43.6 µM; in test [5], 23.8 µM; in [6], 17.2 µM. Moreover, the TGI in test [7] was 28.3 µM; in test [8], above 100 µM; in test [9] it was 38 µM; in [10], 25.1 µM.

As to `O=C(OCc1ccc2c(Cl)cc(Cl)c(O)c2n1)N1CCN(C(=O)c2cc3cc(F)ccc3[nH]2)CC1`, the GI50 in test [1] was 0.392 µM; in test [2] it was 3.95 µM; in [3], above 100 µM; in test [4], 0.918 µM; in [5], 3.71 µM; in test [6], 0.551 µM. In addition, the GI50 is 0.504 µM in test [7], 0.48 µM in test [8], 62.7 µM in test [9] and 3.03 µM in test [10]. The TGI in test [1] is above 100 µM; in test [2] it was above 94.6 µM; in test [3], above 100 µM; in test [4], above 100 µM; in [5], above 100 µM; in [6], above 100 µM. Further, the TGI in test [7] is 5.48 µM; in test [8] it was above 100 µM; in test [9], above 100 µM; in [10] it was above 100 µM.

As for `COc1ccc2c3c(Nc4ccc(/C(C)=N/O)cc4)[nH]c4ccccc4c-3c(N=O)c2c1`, the GI50 was 1.47 µM in [1]; 1.78 µM in test [2]; 24.1 µM in test [3]; 29.5 µM in test [4]; 6.31 µM in [5]; 3.55 µM in [6]. The GI50 is 12.9 µM in [7], 2.52 µM in [8] and 19.6 µM in test [9]. Besides, the TGI in [1] is 2.89 µM; in test [2], 3.27 µM; in test [3], 53.2 µM; in test [4], above 100 µM; in test [5] it was 27.6 µM; in test [6] it was 20.2 µM. The TGI is 27.2 µM in test [7], 5.14 µM in test [8], 33.7 µM in test [9] and 0.0372 µM in [10].

In the case of `O=C(CSC(c1ccccc1)c1ccccc1)N/N=C/c1ccco1`, the GI50 in test [1] was 1.46 µM; in test [2], 1.62 µM; in test [3], 28.3 µM; in test [4], 2.16 µM; in test [5], 1.53 µM; in test [6] it was 1.84 µM. Moreover, the GI50 was 1.89 µM in test [7], 1.94 µM in test [8], 18.7 µM in test [9] and 1.25 µM in [10]. In addition, the TGI was 2.98 µM in [1]; 3.58 µM in [2]; above 100 µM in test [3]; 12.8 µM in test [4]; 2.94 µM in [5]; 6.67 µM in test [6]. Further, the TGI amounted to 5.37 µM in test [7], 4.45 µM in test [8], 48.3 µM in test [9] and 3.32 µM in test [10].

Turning to `CCN(CC)c1cc2oc3cc(N)cc(=N)c-3nc2cc1C`, the GI50 in [1] is 1.83 µM; in test [2], 10 µM; in test [3], 5.04 µM; in test [4] it was 3.41 µM; in [5] it was 2.16 µM; in test [6] it was 2.77 µM. The GI50 in [7] was 16.3 µM; in [8], 1.03 µM; in [9] it was 3.49 µM; in [10], 13.1 µM. Besides, the TGI in test [1] is 5.69 µM; in [2] it was 81.2 µM; in test [3], 43.8 µM; in test [4], 17 µM; in test [5], 6.08 µM; in test [6], above 100 µM. Further, the TGI came to 74.7 µM in test [7], 23.7 µM in test [8], 15.6 µM in test [9] and 26.9 µM in [10].

Consider `O=C(NCc1ccc(S(=O)(=O)c2cc(F)cc(F)c2)cc1)c1ccc2nccn2c1`, for which the concentration for 50% growth inhibition (GI50) is below 0.01 µM in [1]; 14.6 µM in test [2]; 11.7 µM in test [3]; 0.514 µM in test [4]; above 41.6 µM in [5]; below 0.01 µM in test [6]. For the same compound, the GI50 in test [7] was above 28.4 µM; in [9] it was 0.0885 µM; in [10], above 44.8 µM. The TGI was above 100 µM in test [1]; above 100 µM in test [2]; above 100 µM in test [3]; above 100 µM in test [4]; above 65 µM in test [5]; above 100 µM in [6]. Moreover, the TGI in test [7] is above 86.8 µM; in test [8] it was above 100 µM; in test [9], above 100 µM; in test [10] it was above 72.4 µM.

The term GI50 denotes the concentration that inhibits growth by half. As a reminder, the TGI is the concentration giving total growth inhibition.
